Measured values taken from US20130004516A1, “DRUG FOR INFLAMMATORY BOWEL DISEASE” (DAINIPPON SUMITOMO PHARMA CO., LTD., priority 2010, published 2013).

System: mouse model of relapse-remitting type ulcerative colitis
Experiment: Ulcer score of the large intestine in the mouse model of colitis induced by 1% DSS (Example 1)
Format: in vivo
Conditions: day of completion; score 1 = ulcer of 1 mm^2 or larger; antibodies 0.5 mg/mouse intraperitoneally once; sulfasalazine 200 mg/kg orally once a day
Procedure: An aqueous solution of dextran sulfate (DSS) was administered to a mouse to induce relapse-remitting type ulcerative colitis. To this mouse model of relapse-remitting type ulcerative colitis, an anti-CD81 antibody was administered once and a relapse (recurrence)-inhibitory effect of single-dose administration of an anti-CD81 antibody on ulcerative colitis was examined by comparing with single-dose administration of an anti-TNF-α antibody and multiple-dose administration of sulfasalazine, both of which are the existing therapeutic agents.
Dextran sulfate (the product of TdB consultancy AB, an average molecular weight of 47,000) was dissolved in drinking water to prepare a 1% aqueous solution. […]
Four-week-old mice (BALB/cAnNCrj, male, the product of Charles River Laboratories Japan, Inc.) were purchased, and the mice in which no abnormality was found after six days of quarantine rearing were measured for body weight and then divided into six groups, where one group contained 10 mice. […]
On the day of completion of the experiment, 0.1 ml of a 2.5% brilliant blue 6B solution was administered to all groups of mice via tail vein. […] Subsequently, the large intestine was thoroughly washed with an ethanol solution and the size of ulcer was measured. […]

Structure (SMILES): O=C(O)c1cc(/N=N/c2ccc(S(=O)(=O)Nc3ccccn3)cc2)ccc1O [Sulfasalazine, sulfasalazine]
- Ulcer score: 0.1
